# Where two headings read alike, the source gives them in different places.
# Assays:
# [1] = 2 months under air at room temperature
# [2] = Storage of morphine sulfate in moisturizing chamber (moist room temperature air), ABUK/water/ethanol analysis; assay type: physicochemical; settings: after several days in moisturizing chamber
Structure (SMILES),methanol content after storage [1] [% by weight],water content after storage [1] [% by weight],ABUK level after storage ([1]; morphine base had 5 ppm ABUK at start) [ppm],"ABUK level after storage ([2]; constant flow of moist room temperature air, 17 ppm ABUK before) [ppm]",ethanol content after storage ([2]; 0.95% before (gas chromatography)) [%],water content after storage ([2]; 5.25% before (Karl Fischer)) [%]
"CN1CC[C@]23c4c5ccc(O)c4O[C@H]2[C@@H](O)C=C[C@H]3[C@H]1C5 [morphine base, morphine]",0.08,5.70,117,,,
CN1CC[C@]23c4c5ccc(O)c4O[C@H]2[C@@H](O)C=C[C@H]3[C@H]1C5.O=S(=O)(O)O [morphine sulfate],,,,123,0.11,9.8

# — patent publication US9127008B2, “Morphine sulfate methanolic solvate, processes for making same and related compositions and methods for treating pain” (Johnson Matthey Public Limited Company, priority 2013, dated 2015)
